Assay results from ChEMBL document CHEMBL1201862, “PubChem BioAssay data set” (2004).
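Assay format: 96-well plates, 48-hour exposure. At the GI50, growth is halved.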 Calls of active or inactive are those of the source. Rule as the data show it: active = GI50 up to about 1.1 µM and inactive = higher.

What was measured:
Assay in all cases: DTP human tumour cell line panel, 48 h
[1] = system: MCF7
[2] = system: SR
[3] = system: A549
[4] = system: M14
[5] = system: T47D
[6] = system: COLO 205
[7] = system: KM12
[8] = system: DU-145
[9] = system: HCC 2998
[10] = system: HOP-92
[11] = system: OVCAR-4
[12] = system: RPMI-8226
[13] = system: ACHN
[14] = system: SN12C
[15] = system: SNB-19
[16] = system: Hs-578T
[17] = system: NCI-H23
[18] = system: SK-MEL-5
[19] = system: OVCAR-3
[20] = system: EKVX
[21] = system: MDA-MB-231
[22] = system: K562
[23] = system: HL-60
[24] = system: SNB-75
[25] = system: CCRF-CEM
[26] = system: UACC-257
[27] = system: U-251
[28] = system: PC-3
[29] = system: Malme-3M
[30] = system: OVCAR-8
[31] = system: SK-MEL-28
[32] = system: UO-31
[33] = system: NCI-H226
[34] = system: NCI-H522
[35] = system: SF-295
[36] = system: SK-OV-3
[37] = system: BT-549
[38] = system: HCT-15
[39] = system: 786-0
[40] = system: OVCAR-5
[41] = system: SF-268
[42] = system: HCT-116
[43] = system: MOLT-4
[44] = system: SW-620
[45] = system: IGROV-1
[46] = system: RXF 393
[47] = system: MDA-N
[48] = system: MDA-MB-435
[49] = system: HOP-62
[50] = system: SF-539
[51] = system: TK-10
[52] = system: UACC-62
[53] = system: A498
[54] = system: LOX IMVI
[55] = system: HT-29
[56] = system: CAKI-1
[57] = system: NCI-H460
[58] = system: SK-MEL-2
[59] = system: NCI/ADR-RES

Compound: O=C1CCCCCCCCCCC1CN1CCOCC1 (stereo not given)
- GI50 [1]: > 100 µM (inactive)
- GI50 [2]: > 100 µM (inactive)
- GI50 [3]: > 100 µM (inactive)
- GI50 [4]: > 100 µM (inactive)
- GI50 [5]: > 100 µM (inactive)
- GI50 [6]: > 100 µM (inactive)
- GI50 [7]: > 100 µM (inactive)
- GI50 [8]: > 100 µM (inactive)
- GI50 [9]: > 100 µM (inactive)
- GI50 [10]: > 100 µM (inactive)
- GI50 [11]: > 100 µM (inactive)
- GI50 [12]: > 100 µM (inactive)
- GI50 [13]: > 100 µM (inactive)
- GI50 [14]: > 100 µM (inactive)
- GI50 [15]: > 100 µM (inactive)
- GI50 [16]: 30.3 µM (inactive)
- GI50 [17]: > 100 µM (inactive)
- GI50 [18]: 13.9 µM (inactive)
- GI50 [19]: > 100 µM (inactive)
- GI50 [20]: > 100 µM (inactive)
- GI50 [21]: > 100 µM (inactive)
- GI50 [22]: > 100 µM (inactive)
- GI50 [23]: > 100 µM (inactive)
- GI50 [24]: 2.45 µM (inactive)
- GI50 [25]: > 100 µM (inactive)
- GI50 [26]: > 100 µM (inactive)
- GI50 [27]: > 100 µM (inactive)
- GI50 [28]: > 100 µM (inactive)
- GI50 [29]: > 100 µM (inactive)
- GI50 [30]: > 100 µM (inactive)
- GI50 [31]: > 100 µM (inactive)
- GI50 [32]: > 100 µM (inactive)
- GI50 [33]: > 100 µM (inactive)
- GI50 [34]: > 100 µM (inactive)
- GI50 [35]: > 100 µM (inactive)
- GI50 [36]: > 100 µM (inactive)
- GI50 [37]: > 100 µM (inactive)
- GI50 [38]: > 100 µM
- GI50 [39]: > 100 µM (inactive)
- GI50 [40]: > 100 µM (inactive)
- GI50 [41]: > 100 µM (inactive)
- GI50 [42]: > 100 µM (inactive)
- GI50 [43]: 66.1 µM (inactive)
- GI50 [44]: > 100 µM (inactive)
- GI50 [45]: > 100 µM (inactive)
- GI50 [46]: > 100 µM (inactive)
- GI50 [47]: > 100 µM (inactive)
- GI50 [48]: > 100 µM (inactive)
- GI50 [49]: > 100 µM (inactive)
- GI50 [50]: > 100 µM (inactive)
- GI50 [51]: > 100 µM (inactive)
- GI50 [52]: > 100 µM (inactive)

Compound: c1ccc2c(c1)[C@@H]1O[C@@H]1[C@@]13O[C@@]21[C@H]1O[C@H]1c1ccccc13
- GI50 [1]: 10.1 µM (inactive)
- GI50 [3]: 15.7 µM (inactive)
- GI50 [4]: 15.6 µM (inactive)
- GI50 [5]: 17.8 µM (inactive)
- GI50 [6]: 15.7 µM (inactive)
- GI50 [7]: 12.9 µM (inactive)
- GI50 [8]: 15.3 µM (inactive)
- GI50 [9]: 16.6 µM (inactive)
- GI50 [10]: 9.89 µM (inactive)
- GI50 [11]: 11.9 µM (inactive)
- GI50 [12]: 9.16 µM (inactive)
- GI50 [13]: 12.9 µM (inactive)
- GI50 [14]: 17.7 µM (inactive)
- GI50 [53]: 15.7 µM (inactive)
- GI50 [15]: 16.1 µM (inactive)
- GI50 [54]: 10.2 µM (inactive)
- GI50 [16]: 13 µM (inactive)
- GI50 [17]: 14 µM (inactive)
- GI50 [18]: 12.9 µM (inactive)
- GI50 [55]: 20.2 µM (inactive)
- GI50 [19]: 16.5 µM (inactive)
- GI50 [20]: 17 µM (inactive)
- GI50 [56]: 10.8 µM (inactive)
- GI50 [21]: 15.8 µM (inactive)
- GI50 [22]: 13.6 µM (inactive)
- GI50 [23]: 13.3 µM (inactive)
- GI50 [24]: 12.9 µM (inactive)
- GI50 [25]: 4.48 µM (inactive)
- GI50 [26]: 17.6 µM (inactive)
- GI50 [57]: 14.7 µM (inactive)
- GI50 [27]: 12.3 µM (inactive)
- GI50 [28]: 13.1 µM (inactive)
- GI50 [29]: 12.7 µM (inactive)
- GI50 [58]: 14.7 µM (inactive)
- GI50 [30]: 15.6 µM (inactive)
- GI50 [59]: 16.3 µM (inactive)
- GI50 [31]: 16.9 µM (inactive)
- GI50 [32]: 33.4 µM (inactive)
- GI50 [33]: 15.3 µM (inactive)
- GI50 [34]: 10.8 µM (inactive)
- GI50 [35]: 15.1 µM (inactive)
- GI50 [36]: 21.5 µM (inactive)
- GI50 [37]: 16.2 µM (inactive)
- GI50 [38]: 19.5 µM
- GI50 [39]: 15.2 µM (inactive)
- GI50 [40]: 17.1 µM (inactive)
- GI50 [41]: 13.7 µM (inactive)
- GI50 [42]: 12.1 µM (inactive)
- GI50 [43]: 10.6 µM (inactive)
- GI50 [44]: 12.8 µM (inactive)
- GI50 [45]: 12.2 µM (inactive)
- GI50 [46]: 12.6 µM (inactive)
- GI50 [47]: 15.6 µM (inactive)
- GI50 [48]: 13.7 µM (inactive)
- GI50 [49]: 15.5 µM (inactive)
- GI50 [50]: 16.5 µM (inactive)
- GI50 [51]: 18.1 µM (inactive)
- GI50 [52]: 12.2 µM (inactive)
